Laboratory results: patent EP1985624A2, “Single step method of radiofluorination of biologically active compounds or biomolecules” (Bayer Schering Pharma Aktiengesellschaft, priority 2007, dated 2008)
pKi: −log10 of the molar value. *1 amine or outer side, *2 acyl side, *3 side chain or, on linkers, in order; H or OH if unused. Where a SMILES comes first, the peptide text is derived from it. [ ]: non-standard residue; d: D form. The star is where a group is joined. X3 = CC(C)[C@H](N[*:1])[C@H](O)CC(=O)[*:2]; Benzoyl(3-CN,4-F) = N#Cc1cc(C(=O)*)ccc1F; Benzoyl(3,4-F2) = O=C(c1ccc(F)c(F)c1)*; NMeH = CN[C@@H](Cc1c[nH]cn1)C(=O)O; X1 = CCC(C)C(CCC(=O)[*:2])N[*:1]; β3hI = CC[C@H](C)[C@H](N)CC(=O)O; Tle = CC(C)(C)[C@H](N)C(=O)O; β3hL = CC(C)C[C@H](N)CC(=O)O; Ava = NCCCCC(=O)O; βAla = NCCC(=O)O; Sar = CNCC(=O)O

Tested on: not listed separately
Assay: human serum stability of the F-18 labeled peptide (HPLC purity)
Assay type: in vitro ADME
Conditions: 37°C for 90 min, purity assessed by HPLC (phosphate buffer and TFA mobile phases)
Experimental: To qualify for pre-clinical and clinical use, it is necessary to establish the stability of the compound in human serum. The compound a 70 µL of human serum containing the F-18 labeled peptide (5.89 MBq/mL) was incubated at 37°C for 90 min. An aliquot was withdrawn at various intervals and the purity assessed by HPLC. The purity was evaluated in under two different conditions. Potassium hydrogen phosphate buffer system was used as a mobile phase to measure the stability of attached F-18 label. Column: C-18, Gradient: A: 10mM K2HPO4 pH:9,04; B: 10mM K2HPO4 pH:9,04/ACN 3/ 7; Flow rate: 2 mL, 5% A to 95% B in 7 min. [formula] [formula] [formula]
Trifluoroacetic acid system was used as a mobile phase to measure the stability of the entire molecule. Column: C-18, Gradient: A: 10% CH3CN: 90% H2O, B:90% CH3CN: 10% H2O containing 0.1 % TFA. [formula] [formula] [formula]

| Molecule | stability in human serum |
| --- | --- |
| 4-[18]Fluoro-3-cyano-benzoyl-Arg-Ava-Gln-Trp-Ala-Val-NMeGly-His-Sta-Leu-NH2 [IIA-a-1] | stable in human serum |

Biological target: T1, human bombesin 2 receptor (GRPR) (Homo sapiens, UniProt P30550)
T1 construct: using GRPR-containing cell membranes (Perkin Elmer); purchased Perkin Elmer
T1 sequence (P30550 whole entry): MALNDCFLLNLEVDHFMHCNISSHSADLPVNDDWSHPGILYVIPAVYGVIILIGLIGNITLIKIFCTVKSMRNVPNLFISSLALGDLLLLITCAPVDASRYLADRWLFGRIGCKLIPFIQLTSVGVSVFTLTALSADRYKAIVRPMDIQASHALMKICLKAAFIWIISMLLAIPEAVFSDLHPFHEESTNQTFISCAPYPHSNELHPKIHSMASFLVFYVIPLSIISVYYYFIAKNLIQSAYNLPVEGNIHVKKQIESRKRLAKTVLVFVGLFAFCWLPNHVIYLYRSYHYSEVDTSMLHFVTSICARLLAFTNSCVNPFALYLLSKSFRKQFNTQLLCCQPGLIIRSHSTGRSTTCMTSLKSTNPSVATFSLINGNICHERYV
Assay: competitive receptor-binding assay (scintillation proximity assay) with 125I-[Tyr4]-Bombesin
Conditions: not given
Experimental: In vitro binding affinity and specificity of Bombesin analogs for the human bombesin 2 receptor (GRPR) were assessed via a competitive receptor-binding assay using ^125I-[Tyr^4]-Bombesin (Perkin Elmer; specific activity 81.4 TBq/mmol) as GRPR-specific radioligand. The assay was performed based on the scintillation proximity assay (SPA) technology (Carpenter JW et al., Meth Mol Biol 2002; 190:31-49) using GRPR-containing cell membranes (Perkin Elmer) and wheat germ agglutinin (WGA)-coated PVT beads (Amersham Bioscience).
(§1) Briefly, GRPR-containing membranes and WGA-PVT beads were mixed in assay buffer (50 mM Tris/HCl pH 7.2, 5 mM MgCl2, 1 mM EGTA, Complete protease inhibitor (Roche Diagnostics GmbH) and 0.3% PEI) to give final concentrations of approximately 100 µg/ml protein and 40 mg/ml PVT-SPA beads. The ligand ^125I-[Tyr^4]-Bombesin was diluted to 0.5 nM in assay buffer. The test compounds were dissolved in DMSO to give 1 mM stock solutions Later on, they were diluted in assay buffer to 8 pM - 1.5 µM.
The assay was then performed as follows: First, 10 µl of compound solution to be tested for binding were placed in white 384 well plates (Optiplate-384, Perkin-Elmer). At next, 20 µl GRPR/WGA-PVT bead mixture and 20 µl of the ligand solution were added. After 90 minutes incubation at room temperature, another 50 µl of assay buffer were added, the plate sealed and centrifuged for 10 min at 520xg at room temperature. Signals were measured in a TopCount (Perkin Elmer) for 1 min integration time per well. The IC50 was calculated by nonlinear regression using the GraFit data analysis software (Erithacus Software Ltd.). Furthermore, the KI was calculated based on the IC50 for test compound as well as the KD and the concentration of the ligand ^125I-[Tyr^4]-Bombesin. Experiments were done with quadruple samples.
The Binding affinities measured for all the cold F-19 compounds are listed Table 2.
as §1, with “Lateron,” for “Later on,”

| Molecule | pKi |
| --- | --- |
| CCC(C)C(CCC(=O)N[C@@H](CC(C)C)C(N)=O)NC(=O)[C@H](Cc1c[nH]cn1)NC(=O)CNC(=O)[C@@H](NC(=O)[C@H](C)NC(=O)[C@H](Cc1c[nH]c2ccccc12)NC(=O)[C@H](CCC(N)=O)NC(=O)CCCCNC(=O)c1ccc(F)c(C#N)c1)C(C)C (stereo partly drawn) [IIB-a-17, 4-[19]-Fluoro-3-cyano-benzoyl-Ava-Gln-Trp-Ala-Val-Gly-His-4-Am,S-MeHpA-Leu-NH2] ({Benzoyl(3-CN,4-F)-Ava}-QWAVGH[X1]L-NH2) | 8.72 |
| CC(C)C[C@H](NC(=O)[C@H](Cc1ccccc1)NC(=O)[C@@H](Cc1c[nH]cn1)NC(=O)CCNC(=O)[C@@H](NC(=O)[C@H](C)NC(=O)[C@H](Cc1c[nH]c2ccccc12)NC(=O)[C@H](CCC(N)=O)NC(=O)CCCCNC(=O)c1ccc(F)c(F)c1)C(C)C)C(N)=O [IIB-a-55] ({Benzoyl(3,4-F2)-Ava}-QWAV[βAla][dH]FL-NH2) | 7.72 |
| CCC(C)C(CCC(=O)N[C@@H](CC(C)C)C(N)=O)NC(=O)[C@H](Cc1c[nH]cn1)N(C)C(=O)CNC(=O)[C@@H](NC(=O)[C@H](C)NC(=O)[C@H](Cc1c[nH]c2ccccc12)NC(=O)[C@H](CCC(N)=O)NC(=O)CCCCNC(=O)c1ccc(F)c(F)c1)C(C)C (stereo partly drawn) [IIB-a-50, 3,4-[19]Difluorobenzoyl-Ava-Gln-Trp-Ala-Val-Gly-NMeHis-4-Am,5-MeHpA-Leu-NH2] ({Benzoyl(3,4-F2)-Ava}-QWAVG[NMeH][X1]L-NH2) | < 7.60 |
| CC(C)C[C@H](NC(=O)C[C@@H](O)[C@@H](NC(=O)[C@H](Cc1c[nH]cn1)NC(=O)CN(C)C(=O)[C@@H](NC(=O)[C@H](C)NC(=O)[C@H](Cc1c[nH]c2ccccc12)NC(=O)[C@H](CCC(N)=O)NC(=O)CCCCNC(=O)c1ccc(F)c(F)c1)C(C)C)C(C)C)C(N)=O [IIB-a-51] ({Benzoyl(3,4-F2)-Ava}-QWAV[Sar]H[X3]L-NH2) | < 7.60 |
| CC(C)C[C@H](NC(=O)[C@H](Cc1ccccc1)NC(=O)[C@H](Cc1c[nH]cn1)N(C)C(=O)CCNC(=O)[C@@H](NC(=O)[C@H](C)NC(=O)[C@H](Cc1c[nH]c2ccccc12)NC(=O)[C@H](CCC(N)=O)NC(=O)CCCCNC(=O)c1ccc(F)c(F)c1)C(C)C)C(N)=O [IIB-a-54] ({Benzoyl(3,4-F2)-Ava}-QWAV[βAla][NMeH]FL-NH2) | 9.40 |

Same assay, conditions: GRPR-containing cell membranes, 125I-[Tyr4]-Bombesin, 90 minutes at room temperature; Table 2, B1 = CO; read-out: Ki

| Molecule | pKi |
| --- | --- |
| CC(C)C[C@@H](CC(=O)N[C@@H](CC(C)C)C(N)=O)NC(=O)[C@H](Cc1c[nH]cn1)NC(=O)CCNC(=O)[C@@H](NC(=O)[C@H](C)NC(=O)[C@H](Cc1c[nH]c2ccccc12)NC(=O)[C@H](CCC(N)=O)NC(=O)CCCCNC(=O)c1ccc(F)c(F)c1)C(C)C [IIB-a-56] ({Benzoyl(3,4-F2)-Ava}-QWAV[βAla]H[β3hL]L-NH2) | 7.35 |
| CC(C)C[C@@H](CC(=O)N[C@H](C(N)=O)C(C)(C)C)NC(=O)[C@H](Cc1c[nH]cn1)NC(=O)CCNC(=O)[C@@H](NC(=O)[C@H](C)NC(=O)[C@H](Cc1c[nH]c2ccccc12)NC(=O)[C@H](CCC(N)=O)NC(=O)CCCCNC(=O)c1ccc(F)c(F)c1)C(C)C [IIB-a-58] ({Benzoyl(3,4-F2)-Ava}-QWAV[βAla]H[β3hL][Tle]-NH2) | < 7.30 |
| CC[C@H](C)[C@@H](CC(=O)N[C@@H](CC(C)C)C(N)=O)NC(=O)[C@H](Cc1c[nH]cn1)NC(=O)CCNC(=O)[C@@H](NC(=O)[C@H](C)NC(=O)[C@H](Cc1c[nH]c2ccccc12)NC(=O)[C@H](CCC(N)=O)NC(=O)CCCCNC(=O)c1ccc(F)c(F)c1)C(C)C [IIB-a-57] ({Benzoyl(3,4-F2)-Ava}-QWAV[βAla]H[β3hI]L-NH2) | < 7.30 |
